In patent US20110275643A1, “AROYLQUINOLINE COMPOUNDS” (NATIONAL HEALTH RESEARCH INSTITUTES, priority 2010, published 2011):
Read-outs that look alike come from different tables or passages of the source.

How the values were obtained:
[1] = system: oral epidermoid carcinoma KB cells; assay: In vitro cell growth inhibition, methylene blue dye assay, KB cells; format: cell-based, Human
Description: (§1) Human oral epidermoid carcinoma KB cells, non-small-cell lung carcinoma H460 cells, colorectal carcinoma HT29 cells and stomach carcinoma MKN45 cells were maintained in RMPI-1640 medium supplied with 5% fetal bovine serum (FBS). […] Cells in logarithmic phase were cultured at a density of 5000 cells/mL/well in a 24-well plate. KB-VIN10 cells were cultured in drug-free medium for 3 days prior to use. The cells were exposed to various concentrations of the test drugs for 72 hours. The methylene blue dye assay was used to evaluate the effect of the test compounds on cell growth (Finlay et al., 1984).

[2] = system: non-small-cell lung carcinoma H460 cells; assay: In vitro cell growth inhibition, methylene blue dye assay, H460 cells; format: cell-based, Human; details: read-out: IC50 on the proliferation of cells, H460
Description: as §1

[3] = system: colorectal carcinoma HT29 cells; assay: In vitro cell growth inhibition, methylene blue dye assay, HT29 cells; format: cell-based, Human; details: read-out: IC50 on the proliferation of cells, HT29
Description: as §1

[4] = system: stomach carcinoma MKN45 cells; assay: In vitro cell growth inhibition, methylene blue dye assay, MKN45 cells; format: cell-based, Human; details: read-out: IC50 on the proliferation of cells, MKN45
Description: as §1

[5] = system: KB-VIN10 cells (overexpression of P-gp170/MDR); assay: In vitro cell growth inhibition, methylene blue dye assay, MDR-positive KB-VIN10 cells; format: cell-based, Human; details: read-out: IC50 on the proliferation of cells, KB-VIN10
Description: as §1

MAP-rich tubulin = assay: Tubulin polymerization in vitro assay (turbidimetric); format: biochemical, bovine; details: 37° C., 30 minutes, read-out: Inhibition of tubulin polymerization IC50 ± SD
Description: Turbidimetric assays (Liou et al., 2004; Kuo et al., 2004) of microtubules were performed as described by Bollag et al. 1995. In brief, microtubule-associated protein (MAP)-rich tubulin (from bovine brain, Cytoskeleton, Denver, Col.) has been dissolved in reaction buffer (100 mM PIPES (1,4-piperazinediethanesulfulfonic acid, pH 6.9), 2 mM magnesium chloride (MgCl2), 1 mM GTP (guanosine triphosphate)) in preparing of 4 mg/mL tubulin solution. Tubulin solution (240 μg MAP-rich tubulin per well) was placed in 96-well microtiter plate in the presence of test compounds or 2% (v/v) DMSO (dimethyl sulfoxide) as vehicle control. The increase in absorbance was measured at 350 nm in a PowerWave X Microplate Reader (Bio-Tek Instruments, Winooski, Vt.) at 37° C. and recorded every 30 seconds for 30 minutes.

[6] = system: colchicine-binding site of tubulin; assay: Tubulin competition-binding scintillation proximity assay ([3H]colchicine); details: for Inhibition of [3H]colchicine binding (% ± SD), 1 μM inhibitor / Inhibition of [3H]colchicine binding (% ± SD), 5 μM inhibitor: Tubulin at 1 μM, [3H]colchicine at 5 μM
Description: This assay was performed as described by Tahir et al., 2003. […] Then 80 μg of Streptavidin-labeled SPA (scintillation proximity assay) beads were added to each reaction mixture. Then the radioactive counts were directly measured by a scintillation counter.

[7] = system: five cancer cell lines (KB, H460, HT29, MKN45, KB-VIN10); assay: Antiproliferative activity, mean over five cancer cell lines; format: cell-based, Human; details: for IC50: Homo sapiens, read-out: mean IC50 value against five cancer cell lines
Description: The synthesized compounds 5 to 17 were evaluated for antiproliferative activities against four carcinoma cells, oral epidermoid carcinoma KB cells, non-small-cell lung carcinoma H460 cells, colorectal carcinoma HT29 cells and stomach carcinoma MKN45 cells, as well as the MDR-positive cell lines KB-VIN10, that overexpressed P-gp 170/MDR (Table 1). The controls were compounds 1 and 3.
as §1

[8] = Homo sapiens, KB, 72 h, read-out: IC50 on the proliferation of cells, KB
[9] = Homo sapiens, KB cells, 72 hours, mean ± SD, read-out: IC50 on the proliferation of cells, KB
[10] = Homo sapiens, NCI-H460, H460 cells, 72 hours, mean ± SD
[11] = Homo sapiens, HT-29, HT29 cells, 72 hours, mean ± SD
[12] = Homo sapiens, MKN-45, MKN45 cells, 72 hours, mean ± SD
[13] = Homo sapiens, KB-VIN10 cells, 72 hours, mean ± SD
[14] = mean of KB, H460, HT29, MKN45, KB-VIN10

SMILES	IC50 [1, 8] [nM]	IC50 ([2]; Homo sapiens, NCI-H460, 72 h) [nM]	IC50 ([3]; Homo sapiens, HT-29, 72 h) [nM]	IC50 ([4]; Homo sapiens, MKN-45, 72 h) [nM]	IC50 ([5]; Homo sapiens, KB-VIN10, 72 h) [nM]	IC50 (MAP-rich tubulin) [nM]	Inhibition of [3H]colchicine binding (% ± SD), 1 μM inhibitor [6] [%]	Inhibition of [3H]colchicine binding (% ± SD), 5 μM inhibitor [6] [%]	IC50 [7] [nM]	melting point [°C]	IC50 [1, 9] [nM]	IC50 [2, 10] [nM]	IC50 [3, 11] [nM]	IC50 [4, 12] [nM]	IC50 [5, 13] [nM]	IC50 [7, 14] [nM]	other results
COc1ccc2nc(C(=O)c3cc(OC)c(OC)c(OC)c3)ccc2c1 [Compound 12, 6-methoxy-2-(3′,4′,5′-trimethoxybenzoyl)quinoline]	27.2 ± 9.8	61.5 ± 20.5	77 ± 5.7	150 ± 31.2	21.5 ± 0.6	3500	40 ± 3	68 ± 2	67	143 to 145							
COc1cc(C(=O)c2ccc3c(N)c(OC)ccc3n2)cc(OC)c1OC [Compound 15, 5-amino-6-methoxy-2-(3′,4′,5′-trimethoxybenzoyl)quinoline]	0.3 ± 0.1	0.4 ± 0.3	0.4 ± 0.2	0.3 ± 0.2	0.2 ± 0.1	1600	90 ± 0.5	97 ± 1	0.32	184.3 to 185.2							IC50 ([1]; Homo sapiens, KB, read-out: 50% Inhibition concentration (IC50) on the proliferation of KB cells line): 0.31 nM; binding to the colchicine-binding domain in words ([6]; [3H]-colchicine binding assay): strongly bound to the colchicine-binding domain; fold improvement in the IC50 value over compound 12 ([7]; versus compound 12): > 100 fold
COc1ccc2cc(C(=O)c3cc(OC)c(OC)c(OC)c3)ccc2n1 [Compound 14, 2-methoxy-6-(3′,4′,5′-trimethoxybenzoyl)quinoline]						> 10000				182 to 183	301 ± 64.4	256 ± 34.6	206 ± 4.9	138 ± 54.4	202 ± 26.2	220	
COc1cc(C(=O)c2ccc3ccccc3n2)cc(OC)c1OC [Compound 5, 2-(3′,4′,5′-trimethoxybenzoyl)quinoline]						> 10000				158 to 159	174 ± 33.1	180 ± 25.5	148 ± 17	246 ± 32.7	117 ± 23.7	173	
COc1cc(C(=O)c2ccc3ncccc3c2)cc(OC)c1OC [Compound 9, 6-(3′,4′,5′-trimethoxybenzoyl)quinoline]						2900	51 ± 3	72 ± 3		132 to 134	24 ± 6.1	36 ± 5.5	24.6 ± 3	16.3 ± 4.5	21.5 ± 7.7	24.4	
COc1ccc(/C=C\c2cc(OC)c(OC)c(OC)c2)cc1O [Compound 1, combretastatin A-4, reference compound]						[…]	87 ± 1	95 ± 2									IC50 ([1]; KB cells, 72 hours, mean ± SD, read-out: IC50 on the proliferation of cells, KB): 2.4 ± 0.2 nM; IC50 ([2]; H460 cells, 72 hours, mean ± SD): 2.6 ± 0.3 nM; IC50 ([3]; HT29 cells, 72 hours, mean ± SD): 835 ± 54 nM; IC50 ([4]; MKN45 cells, 72 hours, mean ± SD): 4.9 ± 0.2 nM; IC50 ([5]; KB-VIN10 cells, 72 hours, mean ± SD): 1.9 ± 0.4 nM
